Results: patent US7368254B2, “Lipid-based systems for targeting diagnostic agents” (Liplasome Pharma A/S, priority 2000, dated 2008)
Entries after “also recorded” stand apart in the source; their conditions may differ.

What was measured:
[1] = molecular target: T1, Snake venom PLA2 (Agkistrodon piscivorus piscivorus) (Agkistrodon piscivorus piscivorus, UniProt P51972); assay: PLA2-controlled release of calcein across non-hydrolysable D-O-SPC target membrane (carrier liposomes or micelles); assay type: biochemical; conditions: carrier liposomes 25 μM; 25 nM PLA2; 37° C.; FIG. 12a
T1 construct: Purified snake-venom phospholipase A2; from tissue
T1 sequence (P51972 1-123): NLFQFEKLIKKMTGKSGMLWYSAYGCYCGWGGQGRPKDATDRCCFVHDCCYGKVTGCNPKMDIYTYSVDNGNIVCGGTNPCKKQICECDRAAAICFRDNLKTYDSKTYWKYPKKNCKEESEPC
Experimental: Multilamellar model membrane target liposomes were made in the presence of fluorescent calcein in a self-quenching concentration of 20 mM by hydrating a film of 1,2-O-dioctadecyl-sn-glycero-3-phosphatidylcholines (D-O-SPC) in a HEPES buffer solution at pH=7.5 for one hour at 10° C. above the phase transition temperature (Tm=55° C.). […] The unilamellar liposomes were rapidly cooled to a temperature below the transition temperature, and the calcein-containing liposomes were separated from free calcein using a chromatographic column packed with Sephadex G-50. […] Calcein release from the target liposomes is determined by measuring the fluorescent intensity at 520 nm after excitation at 492 nm.
Unilamellar liposomes were made by extruding the multilamellar liposomes ten times through two stacked 100 nm polycarbonate filters.

[2] = i.v., 50 mg/kg
Experimental: Groups of mice (n=5/group; weight 18-22 g) were treated i.v. with buffer (PBS), ET-18-OCH3 (50 mg/kg), and liposomes composed of 1-O-DPPC with 5 mol % 1-O-DPPE-PEG2000 (68.7 and 137.5 mg/kg). 30 min after injection, 100 μl blood was collected into heparinised tubes directly from decapitated, CO2-anesthetised mice. The blood was centrifuged at 500×G for 10 min, and plasma was removed and stored at −20° C. until analysed.
25 μl plasma was mixed with 2,5 ml PBS or 2.5 ml 10% triton X-100.

[3] = tested on: human red blood cells (RBC); assay: Hemolysis assay; conditions: 37° C., 20 hours, FIG. 6
Experimental: Briefly, each sample was serially diluted with phosphate buffered saline (PBS), and 0.5 ml of each dilute suspension was mixed with 0.5 ml washed human red blood cells (RBC) [4% in PBS (v/v)]. Sample and standard were placed in a 37° C. incubator and agitated for 20 hours. Tubes were centrifuged at low speed (2000×G) for 10 minutes and 200 μl of the supernatant was quantitated by absorbance at 550 nm. 100 percent hemolysis was defined as the maximum amount of hemolysis obtained from the detergent Triton X-100.
The lipids were hydrated in phosphate buffered saline (PBS). 1-O-octadecyl-2-O-methyl-sn-glycero-3-phosphocholine (ET-18-OCH3) in PBS was included in the assay as a reference.
Briefly, each sample was serially diluted with PBS, and 0.5 ml of each dilute suspension of 1-O-DPPC liposomes were mixed with 0.5 ml washed human red blood cells (RBC) [4% in PBS (v/v)]. For controls, 0.5 ml of the red blood cell suspension was mixed with either 0.5 ml buffer solution (negative hemolysis control) or 0.5 ml water (positive hemolysis control). Samples and standard were placed in a 37° C. incubator and agitated for 20 hours. Tubes were centrifuged at low speed (2000×G) for 10 minutes to form RBCs pellets. 200 μl of the supernatant was quantitated by absorbance at 550 nm using a Perkin-Elmer 320 scanning spectrophotometer. […]

extracellular PLA2 = assay: Effect of cholesterol incorporated into liposomes on extracellular PLA2 activity (data not shown); assay type: biochemical
Text: Short-chain phospholipids, such as didecanoyl phosphatidylcholine (DCPC), activate extracellular PLA2.

[4] = Calcein release across target membrane on adding lyso-phospholipid and fatty acid, in the absence of PLA2; conditions: target membranes 25 μM; 39° C.; pH 7.5; FIG. 13
Experimental: Total release after 20 min of the fluorescent model drug and/or contrast agent calcein across the target membrane as a function of adding increasing amounts of lyso-palmitoyl phospholipid and palmitic acid, separately, and in a 1:1 mixture. The concentration of the target membranes is 25 μM in a HEPES buffer with pH=7.5 at a temperature of 39° C.
The experimental model system consists of bare liposomes, polymer-coated liposome carrier and a model target membrane. The carrier is a 100 nm unilamellar liposome made of dipalmitoyl phosphatidylcholine lipids (DPPC) with 2.5 mol % lipopolymer of the type dipalmitoyl phosphatidylethanolamine (DPPE)-PEG2000. The target membrane is another liposome made of 1,2-O-dioctadecyl-sn-glycero-phosphatidylcholine (D-O-SPC) which is a phospholipid where the acyl linkages of the stearoyl chains are ether bonds. In contrast to DPPC, D-O-SPC is inert towards PLA2-catalysed hydrolysis thereby mimicking the stability of an intact target cell membrane toward degradation by its own enzymes. […] The permeation of calcein across the D-O-SPC target membrane is subsequently monitored by the increase in fluorescence. […]

[5] = molecular target: T2, phospholipase A2 (A. piscivorus piscivorus) (Agkistrodon piscivorus piscivorus, UniProt P51972); conditions: 0.150 mM micelles, 150 nM PLA2, 45° C.
T2 sequence (P51972 1-123): T1 sequence (P51972 1-123)
Experimental: The hydrolysis of micelles composed DSPE-PEG750 was followed by analysis of the amount of stearic acid generated. The catalytic reaction was initiated by adding 8.9 μL of a 42 μM PLA2 (150 nM) stock solution to 2.5 ml a thermostated micelle suspension of DSPE-PEG750 (0.150 mM) equilibrated at 45° C. for 600 seconds prior to addition of PLA2. The characteristic burst behaviour of PLA2 towards the micelles is signalled by a sudden increase in the intrinsic fluorescence from PLA2 at 340 nm after excitation at 285 nm followed by a concomitant decrease in the 90° light scattering from the lipid suspension (Hønger et al., Biochemistry 35, 9003-9006). Samples for HPLC analysis of the amount of stearic acid generated were taken before adding PLA2 and 100 sec after the observed lag-time. […] HPLC analysis was made using a 5 μm diol column, a mobile phase composed of chloroform/methanol/water (730:230:30, v/v) and an evaporative light scattering detector (see example 2).

CCCCCCCCCC(=O)OC[C@H](COP(=O)([O-])OCC[N+](C)(C)C)OC(=O)CCCCCCCCC [DCPC, didecanoyl phosphatidylcholine]
rate of calcein release across target membrane versus bare DPPC carriers [1]: very fast; also recorded: further augmentation of the rate of release

CCCCCCCCCCCCCCCCCCOC[C@H](COP(=O)([O-])OCC[N+](C)(C)C)OC [ET-18-OCH3]
outcome of treated mice (in words) [2]: died within the 30 minutes period
hemolysis at low concentrations [3]: significant degree of hemolysis

CC(C)CCC[C@@H](C)[C@H]1CC[C@H]2[C@@H]3CC=C4C[C@@H](O)CC[C@]4(C)[C@H]3CC[C@]12C [cholesterol]
effect on extracellular PLA2 (extracellular PLA2; large amount (≈20 mol %) incorporated into liposomes): deactivated
effect on extracellular PLA2 (extracellular PLA2; small amount (≈3 mol %)): activates

CCCCCCCCCCCCCCCC(=O)O [fatty acid, palmitic acid]
rate of calcein release across target membrane in the absence of PLA2 [4]: increased rate of calcein release

di-octadecanoyl-sn-glycero-3-phosphoethanolamine-N-[methoxy(polyethylene glycol)-750 [DSPE-PEG750]
percentage hydrolysis of DSPE-PEG750 to lyso-SPE-PEG750 and stearic acid ([5]; 100 sec after lag-time): 100%
observed lag time [5]: 10 s
